Data taken from patent EP3381898A1, “SYMMETRICAL TRIS-ARYL-AMIDE DERIVATIVES AND THEIR USE AS ANTI-HEPARANASE” (priority 2017, dated 2018).
Structures can show the parent of a compound that is named as a salt. Where two headings read alike, the source gives them in different places.

Columns and labels:
heparanase = biological target: T1, heparanase (Homo sapiens, UniProt Q9Y251); assay: AGA*IA assay: heparanase-catalyzed fondaparinux cleavage, colorimetric (WST-1); format: biochemical
T1 sequence (Q9Y251 158-543 limits assumed): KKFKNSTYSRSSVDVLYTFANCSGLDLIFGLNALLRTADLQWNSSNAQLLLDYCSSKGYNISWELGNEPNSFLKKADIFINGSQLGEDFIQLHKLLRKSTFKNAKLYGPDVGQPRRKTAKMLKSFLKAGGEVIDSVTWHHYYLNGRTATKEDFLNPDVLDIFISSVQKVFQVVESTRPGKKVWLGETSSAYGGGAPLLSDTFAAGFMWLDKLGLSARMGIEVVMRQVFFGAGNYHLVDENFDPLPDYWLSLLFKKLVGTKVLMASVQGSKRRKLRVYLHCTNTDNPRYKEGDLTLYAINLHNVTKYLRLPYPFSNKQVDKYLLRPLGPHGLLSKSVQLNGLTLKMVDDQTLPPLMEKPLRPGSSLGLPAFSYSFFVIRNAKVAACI
T1 sequence (Q9Y251 36-109 limits assumed): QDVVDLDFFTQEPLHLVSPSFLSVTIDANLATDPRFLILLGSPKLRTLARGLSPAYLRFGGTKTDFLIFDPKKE
Method: All compounds were tested in a simple, accurate and robust microplate assay based on the cleavage of the synthetic heparin fragment, the pentasaccharide Fondaparinux (AGA*IA). This assay was originally developed by Hammond and coworkers (Hammond E, Li CP, Ferro V. Development of a colorimetric assay for heparanase activity suitable for kinetic analysis and inhibitor screening. Anal. Biochem. 396(1), 112-116 (2010)), where Fondaparinux corresponds to the methyl glycoside of the antithrombin III (ATIII)-activating pentasaccharide sequence of heparin. Fondaparinux is cleaved by heparanase to generate a reducing disaccharide, which can be quantitatively measured via a colorimetric or a fluorescence assay, the last by the fluorescent sensor polymer-H [Schiemann S, Lühn S, Alban S. Development of both colorimetric and fluorescence heparinase activity assays using fondaparinux as substrate. Anal. Biochem. 427(1), 82-89 (2012)].
The assay measures the appearance of the disaccharide product of heparanase-catalyzed fondaparinux cleavage colorimetrically using the tetrazolium salt WST-1. Assay was essentially performed as described with minor modifications. Briefly, NUNC ELISA 96-well plates were pre-treated with a solution of 4% BSA (bovin serum albumin) in phosphate-buffered saline containing 0.05% Tween 20 (PBST), for 2 h at 37°C, then washed three times with PBST, dried by tapping on paper towel and stored at -20°C. Before use, once again, the plates were washed with PBST.
Assay was carried out with 100 µl/well of assay solution containing 40 mM sodium acetate buffer (pH 5.0), 100 µM fondaparinux, 2.5 nM heparanase and serial dilutions of test compounds (tested in triplicate). Plates were sealed with adhesive tape and incubated, in the dark, for 3 h at 37°C, followed by development with 1.69 mM of the tetrazolium salt WST-1 solution in 0.1 M NaOH, for 1 h at 60°C. Then, the absorbance at 560 nm was measured through a microplate reader (Victor 3, Perkin Elmer).
Finally, the measurements were corrected by subtracting both the reagent background and the inner absorbance value of test compound.

[1] = system: HT1080 (human fibrosarcoma); assay: SRB Cell Cytotoxicity Assay (cell proliferation, 72h); format: cell-based; details: read-out: Concentration (µM) of test compounds at which the cell growth is inhibited by 50 %. HT1080
Method: (§1) SRB Cell Cytotoxicity Assay is an assay based upon the quantitative staining of cellular proteins by sulforhodamine B (SRB). This assay can be used for high-throughput drug screening ([…], Nature Protocol. 2006, 1, 112). Sulforhodamine B is an anionic aminoxanthene dye that forms an electrostatic complex with the basic amino acid residues of proteins under moderately acid conditions, which provides a sensitive linear response. […] Inhibition of cell proliferation was then measured by the classical colorimetric SRB Cell Cytotoxicity assay. Absorbance was measured by spectrophotometer at a wavelength of 510 nm and cell proliferation was determined as percent with respect to control cells (cells treated with the vehicle alone). EC50 values were then determined by GraphPad Prism.

[2] = system: U2OS (human osteosarcoma); assay: as above; format: cell-based; details: read-out: Concentration (µM) of test compounds at which the cell growth is inhibited by 50 %. U2OS
Method: as §1

[3] = system: U87MG (human glioblastoma astrocytoma); assay: as above; format: cell-based; details: U-87 MG, read-out: Concentration (µM) of test compounds at which the cell growth is inhibited by 50 %. U87MG
Method: as §1

[4] = system: HT1080 (human fibrosarcoma); assay: Matrigel cell invasion assay; format: cell-based; details: for inhibition at 2.5 µM: HT-1080, read-out: Invasion Assay Inhibition HT1080
Method: (§2) Heparanase inhibitors were then evaluated for their activity on the invasive potential of HT1080 (human fibrosarcoma), U87MG (human glioblastoma astrocytoma) and U2OS (human osteosarcoma) human cell lines, using the Matrigel cell invasion assay which allows to assess the cell invasion ability of malignant and normal cells.
(§3) Invasion assay was performed using BioCoat cell culture inserts (BioCoat 8.0µm PET Membrane 24 Well Permeable Supports, Corning). Filters were coated with 100 µl of 300 µg/ml Matrigel dissolved in coating buffer (0.01 M Tris pH 8.0, 0.7% NaCl) (Becton-Dickinson Sciences). DMEM (Dulbecco's Modified Eagle's Medium) containing 5% FBS was added to the lower chambers. Cells were pre-treated with heparanase inhibitors for 24 h, detached and added to the upper chambers in media containing the inhibitors. Cells were allowed to invade for 24 h at 37°C in a CO2 incubator and then unmigrated cells were removed from the upper chamber with a cotton swab. The invading cells were fixed, stained with 0.1% crystal violet for 10 min at room temperature, photographed and counted under inverted microscope.
(§4) Test compounds were analyzed at fixed concentration (2.5 µM) for several fields, in duplicates. Activity of test compounds was compared to the reference compound. Activity of most interesting compound was confirmed in a second cell invasion assay. Data were expressed as the percent invasion with respect to cell migration through uncoated insert membrane.
(§5) Table 3. […] In Invasion assay, data were expressed as the percent invasion (range) with respect to cell migration through uncoated insert membrane. In Adhesion assay, data were expressed as the percent of adhesion with respect to the control (100%).

[5] = system: U2OS (human osteosarcoma); assay: Matrigel cell invasion assay; format: cell-based; details: for inhibition at 2.5 µM: Homo sapiens, read-out: Invasion Assay Inhibition U2OS
Method: as §2, §3, §4, §5

[6] = system: U87MG (human glioblastoma astrocytoma); assay: Matrigel cell invasion assay; format: cell-based; details: for inhibition at 2.5 µM: Homo sapiens, U-87 MG, read-out: Invasion Assay Inhibition U87MG
Method: as §2, §3, §4, §5

[7] = system: HT1080 (human fibrosarcoma); assay: Cell adhesion assay on matrigel coated wells; format: cell-based; details: percent of adhesion with respect to the control (100%)
Method: (§6) Cell surface, non-integrin molecules such as heparan sulfate proteoglycans (HSPGs) may be involved in the regulation of early adhesive stages of cell-ECM interactions. A cell adhesion assay has been employed to determine if the newly designed heparanase inhibitors were able to interfere with adhesion properties of cancer cells.
(§7) HT1080 (human fibrosarcoma) and U87MG (human glioblastoma astrocytoma) cells were treated for 18-20 h with test compounds in complete medium supplemented with 10% FCS. Then cells were collected, washed in complete medium, and added to matrigel coated wells in triplicate, at previously identified optimal seeding density, and incubated at 37 °C in complete medium for times ranging from 15 minutes to 4h, according to the cell line. After incubation, the wells were washed three times with serum-free medium and the remaining firmly attached cells were stained with crystal-violet 0.1%. Optical density was measured at 560 nm by Victor 3 (Perkin-Elmer) plate analyzer. Each experiment was repeated three times.
as §5

[8] = system: U87MG (human glioblastoma astrocytoma); assay: Cell adhesion assay on matrigel coated wells; format: cell-based; details: percent of adhesion with respect to the control (100%)
Method: as §6, §7, §5

[9] = AGA*IA screening, read-out: anti-heparanase activity
[10] = Table 1, range activity classes, AGA*IA test on Fondaparinux, read-out: AGAIA assay IC50
[11] = Table 2, classes as in Table 1, read-out: AGA*IA assay

SMILES	IC50 (heparanase; [9]) [nM]	IC50 (heparanase; [10]) [nM]	IC50 (heparanase; [11]) [nM]	EC50 ([1]; HT-1080, 72 h) [µM]	EC50 ([2]; 72 h) [µM]	EC50 ([3]; 72 h) [µM]	inhibition at 2.5 µM [4] [%]	Invasion Assay Inhibition U2OS ([5]; 2.5 µM)	inhibition at 2.5 µM [6] [%]	Adhesion Assay (%) HT1080 ([7]; 2.5 µM) [%]	Adhesion Assay (%) U87MG ([8]; 2.5 µM) [%]	inhibition at 2.5 µM [5] [%]	EC50 ([1]; HT-1080, HT1080, 72h, SRB) [µM]	EC50 ([2]; 72h, SRB) [µM]	EC50 ([3]; U87MG, 72h, SRB) [µM]	inhibition at 10 µM ([4]; HT-1080, HT1080, 10 µM (reference)) [%]	Invasion Assay Inhibition U2OS ([5]; 10 µM (reference))	Invasion Assay Inhibition U87MG ([6]; U87MG, 10 µM (reference))	Adhesion Assay (%) HT1080 ([7]; 10 µM (reference)) [%]	Adhesion Assay (%) U87MG ([8]; 10 µM (reference)) [%]
Cn1cc(NC(=O)c2cccc(NC(=O)Nc3cccc(C(=O)Nc4cc(C(=O)Nc5cccc(CC(=O)NCC(=O)O)c5)n(C)c4)c3)c2)cc1C(=O)Nc1cccc(CC(=O)NCC(=O)O)c1 [Compound 12b, 2,2'-((2,2'-(((4,4'-((3,3'-(Carbonylbis(azanediyl))bis(benzoyl))bis(azanediyl))bis(1-methyl-1H-pyrrole-4,2-diyl-2-carbonyl))bis(azanediyl))bis(3,1-phenylene))bis(acetyl))bis(azanediyl))diacetic acid]	< 500	50 to 490	50 to 490	> 2.5	> 2.5	> 2.5	< 50	-	< 50	97.1	16.7									
Cn1cc(NC(=O)c2cc(NC(=O)Nc3cc(C(=O)Nc4cc(C(=O)Nc5cccc(CC(=O)NCC(=O)O)c5)n(C)c4)cc(C(F)(F)F)c3)cc(C(F)(F)F)c2)cc1C(=O)Nc1cccc(CC(=O)NCC(=O)O)c1 [Compound 13c, Disodium 2,2'-{carbonylbis[imino[5-(trifluoromethyl)-3,1-phenylene]carbonylimino(1-methyl-1H-pyrrole-4,2-diyl)carbonylimino-3,1-phenylene(1-oxoethane-2,1-diyl)imino]}diethanoate salt]	< 500	50 to 490	50 to 490	> 2.5	> 2.5	> 2.5	< 50		< 50	88.2	22.0	50 to 90								
Cn1cc(NC(=O)Nc2cc(C(=O)Nc3cc(C(=O)Nc4cccc(CC(=O)N[C@@H](Cc5ccccc5)C(=O)O)c4)n(C)c3)n(C)c2)cc1C(=O)Nc1cc(C(=O)Nc2cccc(CC(=O)N[C@@H](Cc3ccccc3)C(=O)O)c2)n(C)c1 [Compound 17e, 2,2'-{carbonylbis[imino(1-methyl-1H-pyrrole-4,2-diyl)carbonylimino(1-methyl-1H-pyrrole-4,2-diyl)carbonylimino-3,1-phenylene(1-oxoethane-2,1-diyl)imino]}bis(3-phenylpropanoic acid)]		500 to 990	500 to 990	> 2.5	> 2.5	> 2.5	< 50	-	< 50	93.2	51.6									
Cn1cc(NC(=O)Nc2cc(C(=O)Nc3cc(C(=O)Nc4cccc(CC(=O)NCC(=O)O)c4)n(C)c3)n(C)c2)cc1C(=O)Nc1cc(C(=O)Nc2cccc(CC(=O)NCC(=O)O)c2)n(C)c1 [Compound 18, Disodium 2,2'-{carbonylbis[imino(1-methyl-1H-pyrrole-4,2-diyl)carbonylimino(1-methyl-1H-pyrrole-4,2-diyl)carbonylimino-3,1-phenylene(1-oxoethane-2,1-diyl)imino]}diethanoate salt]		500 to 990	500 to 990	> 2.5	> 2.5	> 2.5	50 to 90		< 50	86.4	62.9	< 50								
Cc1ccc(C(=O)Nc2ccc(S(=O)(=O)O)c3cc(S(=O)(=O)O)cc(S(=O)(=O)O)c23)cc1NC(=O)c1cccc(NC(=O)Nc2cccc(C(=O)Nc3cc(C(=O)Nc4ccc(S(=O)(=O)O)c5cc(S(=O)(=O)O)cc(S(=O)(=O)O)c45)ccc3C)c2)c1 [Suramin, reference compound]													> 10	> 10	> 10	< 50	-	-	100	72.98
